Among the data in patent US20240109885A1, “2,3-DIHYDRO-1H-PYRROLO[3,2-B]PYRIDINE DERIVATIVE, PREPARATION METHOD THEREFOR, AND APPLICATION THEREOF” (Abbisko Therapeutics Co., Ltd, priority 2020, published 2024) are IC50 and GI50 values, retold here.

Assay type in all cases: cell-based
For one assay, the system named is A431 (EGFR-WT). Kind of assay: Cell proliferation assay (CellTiter-Glo), A431 cells. Particulars: Homo sapiens, A-431, 72 hrs, CTG assay, * = average of multiple measurements. In short, it runs like this: (§1)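 Cells seeded overnight, then treated in triplicate with 9 concentrations (3.16-fold dilutions; 0.1% DMSO final) for 72 h at 37 °C, 5% CO2. Viability by CellTiter-Glo luminescence, normalised to cell and medium controls; IC50 (nM) from nonlinear sigmoidal fit.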

Assay [1] has as its target Ba/F3 EGFR-D770-N771ins_SVD (Homo sapiens, UniProt P00533, DUP768-770, cells depend on it). The experiment in a line: Cell proliferation assay (CellTiter-Glo), Ba/F3 EGFR-D770-N771ins_SVD cells. To be noted: 72 hrs, CTG assay, * = average of multiple measurements, read-out: Ba/F3 EGFR-D770-N771ins_SVD (nM), IC50 of cell proliferation. In short, it runs like this:
as §1

The target of assay [2] is Ba/F3 EGFR-V769_D770insASV (Homo sapiens, UniProt P00533, DUP767-769, cells depend on it). Kind of assay: Cell proliferation assay (CellTiter-Glo), Ba/F3 EGFR-V769_D770insASV cells. To be noted: 72 hrs, CTG assay, * = average of multiple measurements, read-out: Ba/F3 EGFR-V769_D770insASV (nM), IC50 of cell proliferation. In short, it runs like this: as §1
Ba/F3 EGFR-V769_D770insASV, sequence (P00533 with tags, fused parts or gaps DUP767-769): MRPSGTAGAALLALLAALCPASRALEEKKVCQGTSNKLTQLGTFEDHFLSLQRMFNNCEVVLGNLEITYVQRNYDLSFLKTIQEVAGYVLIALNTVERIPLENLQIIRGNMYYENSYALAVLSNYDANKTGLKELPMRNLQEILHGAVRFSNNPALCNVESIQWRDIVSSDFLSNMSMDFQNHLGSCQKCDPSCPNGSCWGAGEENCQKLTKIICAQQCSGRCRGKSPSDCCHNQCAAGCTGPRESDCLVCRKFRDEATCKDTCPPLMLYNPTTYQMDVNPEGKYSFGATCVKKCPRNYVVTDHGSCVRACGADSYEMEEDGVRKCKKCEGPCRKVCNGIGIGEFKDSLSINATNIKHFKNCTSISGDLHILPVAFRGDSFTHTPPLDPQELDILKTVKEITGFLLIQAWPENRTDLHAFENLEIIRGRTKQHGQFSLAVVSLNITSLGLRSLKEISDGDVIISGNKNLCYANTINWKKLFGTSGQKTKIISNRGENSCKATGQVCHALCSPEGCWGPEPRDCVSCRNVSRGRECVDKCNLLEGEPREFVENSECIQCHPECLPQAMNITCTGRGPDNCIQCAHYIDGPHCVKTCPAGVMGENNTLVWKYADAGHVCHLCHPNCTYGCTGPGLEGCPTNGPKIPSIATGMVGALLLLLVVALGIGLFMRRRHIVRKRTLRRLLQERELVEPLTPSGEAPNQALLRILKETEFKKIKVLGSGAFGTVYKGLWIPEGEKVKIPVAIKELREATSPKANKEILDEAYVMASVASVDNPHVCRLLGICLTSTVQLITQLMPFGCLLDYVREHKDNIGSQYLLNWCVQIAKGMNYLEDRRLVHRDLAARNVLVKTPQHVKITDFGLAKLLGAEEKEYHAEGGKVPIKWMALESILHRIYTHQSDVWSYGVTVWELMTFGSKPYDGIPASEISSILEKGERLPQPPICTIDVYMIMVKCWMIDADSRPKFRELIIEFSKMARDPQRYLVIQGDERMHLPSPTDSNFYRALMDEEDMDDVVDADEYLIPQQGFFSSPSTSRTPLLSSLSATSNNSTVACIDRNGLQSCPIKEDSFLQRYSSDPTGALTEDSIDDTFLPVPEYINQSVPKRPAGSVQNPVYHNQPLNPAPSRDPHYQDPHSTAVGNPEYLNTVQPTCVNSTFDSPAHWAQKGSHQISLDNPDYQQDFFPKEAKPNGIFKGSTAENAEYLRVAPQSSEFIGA

Ba/F3 EGFR-D770-N771ins_SVD, sequence (P00533 with tags, fused parts or gaps DUP768-770): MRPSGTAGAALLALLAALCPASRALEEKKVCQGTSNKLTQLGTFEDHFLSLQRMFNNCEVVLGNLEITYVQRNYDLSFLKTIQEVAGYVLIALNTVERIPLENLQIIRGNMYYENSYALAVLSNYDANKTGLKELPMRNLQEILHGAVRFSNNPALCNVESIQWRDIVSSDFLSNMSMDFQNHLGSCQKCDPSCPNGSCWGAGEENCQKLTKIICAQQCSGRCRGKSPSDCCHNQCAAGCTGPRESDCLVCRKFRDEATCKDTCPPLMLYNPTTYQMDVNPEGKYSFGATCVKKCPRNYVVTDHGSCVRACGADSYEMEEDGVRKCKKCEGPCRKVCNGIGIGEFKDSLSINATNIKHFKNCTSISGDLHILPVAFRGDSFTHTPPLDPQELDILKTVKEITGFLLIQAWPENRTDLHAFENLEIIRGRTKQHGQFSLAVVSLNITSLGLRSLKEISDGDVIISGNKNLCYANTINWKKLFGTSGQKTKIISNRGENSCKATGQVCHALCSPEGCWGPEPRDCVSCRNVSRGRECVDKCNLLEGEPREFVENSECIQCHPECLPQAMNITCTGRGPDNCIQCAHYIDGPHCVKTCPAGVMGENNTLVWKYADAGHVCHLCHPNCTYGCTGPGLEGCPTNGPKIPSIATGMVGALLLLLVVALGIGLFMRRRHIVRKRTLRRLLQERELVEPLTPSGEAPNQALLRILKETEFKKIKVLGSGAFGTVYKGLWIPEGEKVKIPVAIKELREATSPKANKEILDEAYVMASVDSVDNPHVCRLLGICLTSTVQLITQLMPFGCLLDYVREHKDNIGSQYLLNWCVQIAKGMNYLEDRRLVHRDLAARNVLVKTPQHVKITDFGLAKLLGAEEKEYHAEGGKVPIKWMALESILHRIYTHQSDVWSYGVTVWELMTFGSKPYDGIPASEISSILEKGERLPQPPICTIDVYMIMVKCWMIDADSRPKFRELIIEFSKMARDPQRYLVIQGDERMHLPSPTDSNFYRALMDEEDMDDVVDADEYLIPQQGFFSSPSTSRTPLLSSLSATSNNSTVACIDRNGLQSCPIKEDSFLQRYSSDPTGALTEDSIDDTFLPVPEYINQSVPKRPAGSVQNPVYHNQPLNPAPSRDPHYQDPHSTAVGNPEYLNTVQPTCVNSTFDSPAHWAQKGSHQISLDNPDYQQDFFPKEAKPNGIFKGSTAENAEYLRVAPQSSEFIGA

Compound `C=CC(=O)Nc1cc(Nc2cc(N3CC(C)(C)c4nc(C)c(C)cc43)ncn2)c(OC)cc1N(C)CCN(C)C` [Example 28, N-(2-((2-(dimethylamino)ethyl) (methyl)amino)-4-methoxy-5-((6-(3,3,5,6-tetramethyl-2,3-dihydro-1H-pyrrolo[3,2-b]pyridin-1-yl)pyrimidin-4-yl)amino)phenyl)acrylamide] displayed an IC50 in the assay with A431 (EGFR-WT) of 26.3 nM. Further, the GI50 in assay [1] worked out at 28.9 nM; in assay [2] it was 37.1 nM.

`C=CC(=O)Nc1cc(Nc2nccc(N3CC(C)(C)c4nc(C5CC5)ccc43)n2)c(OC)nc1N(C)CCN(C)C` [Example 69, N-(5-((4-(5-cyclopropyl-3,3-dimethyl-2,3-dihydro-1H-pyrrolo [3,2-b]pyridin-1-yl)pyrimidin-2-yl)amino)-2-((2-(dimethylamino)ethyl) (methyl)amino)-6-methoxypyridin-3-yl)acrylamide] gave a half-maximal inhibitory concentration (IC50) in the assay on A431 (EGFR-WT) of 317 nM. The GI50 in assay [1] is 24.8 nM; in assay [2] it was 53.7 nM.

As for `C=CC(=O)Nc1cc(Nc2nccc(N3CC4(CCC4)c4ncccc43)n2)c(OC(F)F)cc1N(C)CCN(C)C` [Example 62, N-(4-(difluoromethoxy)-2-((2-(dimethylamino)ethyl)(methyl)amino)-5-((4-(spiro[cyclobutane-1,3′-pyrrolo[3,2-b]pyridin]-1′(2′H)-yl)pyrimidin-2-yl)amino)phenyl) acrylamide], half-maximal inhibition in the assay with A431 (EGFR-WT) (IC50) required 582 nM. Also, the GI50 in assay [1] was determined as 21.7 nM; in assay [2], 36.3 nM.

Compound `C=CC(=O)Nc1cc(Nc2nccc(N3CC(C)(C)c4nc(-n5cnc(C)c5)ccc43)n2)c(OC)cc1N(C)CCN(C)C` [Example 60, N-(5-((4-(3,3-dimethyl-5-(4-methyl-1H-imidazole-1-yl)-2,3-dihydro-1H-pyrrolo[3,2-b]pyridin-1-yl)pyrimidin-2-yl)amino)-2-((2-(dimethylamino)ethyl)(methyl)amino)-4-methoxyphenyl)acrylamide] displayed an IC50 with A431 (EGFR-WT) of 747 nM. The GI50 in assay [1] amounted to 34.5 nM; in assay [2] it was 110 nM.

Take `C=CC(=O)Nc1cc(Nc2ncnc(N3CC(C)(C)c4nc(C)ccc43)n2)c(OC)cc1N(C)CCN(C)C` [Example 8, N-(2-((2-(dimethylamino)ethyl) (methyl)amino)-4-methoxy-5-((4-(3,3,5-trimethyl-2,3-dihydro-1H-pyrrolo[3,2-b]pyridin-1-yl)-1,3,5-triazin-2-yl)amino)phenyl)acrylamide]: the half-inhibitory concentration (IC50) in the assay with A431 (EGFR-WT) was 71.8 nM. Also, the results for the GI50 in assay [1] and in assay [2] were 12.5 nM and 17.9 nM, respectively.

Take `C=CC(=O)Nc1cc(Nc2nccc(N3CC4(CCC4)c4ncccc43)n2)c(OCC(F)(F)F)nc1N(C)CCN(C)C` [Example 57, N-(2-((2-(dimethylamino)ethyl) (methyl)amino)-5-((4-(spiro[cyclo-butane-1,3′-pyrrolo[3,2-b]pyridin]-1′(2′H)-yl)pyrimidin-2-yl)amino)-6-(2,2,2-trifluoroethoxy)pyridin-3-yl)acrylamide]: 673 nM corresponded to half-maximal inhibition in the assay on A431 (EGFR-WT) (IC50). The GI50 in assay [1] came to 32.7 nM; in assay [2], 79.7 nM.

In the assay on A431 (EGFR-WT), `C=CC(=O)Nc1cc(Nc2ncnc(N3CC(C)(C)c4nc(C)c(C)cc43)n2)c(OC)cc1N(C)CCN(C)C` [Example 20, N-(2-((2-(dimethylamino)ethyl) (methyl)amino)-4-methoxy-5-((4-(3,3,5,6-tetramethyl-2,3-dihydro-1H-pyrrolo[3,2-b]pyridin-1-yl)-1,3,5-triazin-2-yl)amino)phenyl)acrylamide] returned a half-inhibitory concentration (IC50) of 15.2 nM. For the same compound, the values for the GI50 in assay [1] and in assay [2] were 2.9 nM and 14 nM, respectively.

`C=CC(=O)Nc1cc(Nc2ncnc(N3CC(C)(C)c4nc(C)ccc43)n2)c(OC(C)C)nc1N(C)CCN(C)C` [Example 48, N-(2-((2-(dimethylamino)ethyl) (methyl)amino)-6-isopropoxy-5-((4-(3,3,5-trimethyl-2,3-dihydro-1H-pyrrolo[3,2-b]pyridin-1-yl)-1,3,5-triazin-2-yl)amino)pyridin-3-yl) acrylamide] showed an IC50 in the assay on A431 (EGFR-WT) of 66 nM. The GI50 amounted to 23.7 nM in assay [1] and 9.1 nM in assay [2].

`C=CC(=O)Nc1cc(Nc2ncnc(N3CC4(CCCCC4)c4nc(C)ccc43)n2)c(OC)cc1N(C)CCN(C)C` [Example 31, N-(2-((2-(dimethylamino)ethyl) (methyl)amino)-4-methoxy-5-((4-(5′-methylspiro[cyclohexane-1,3′-pyrrolo[3,2-b]pyridin]-1′(2′H)-yl)-1,3,5-triazin-2-yl)amino)phenyl)acrylamide] registered a half-maximal inhibitory concentration (IC50) in the assay on A431 (EGFR-WT) of 11.1 nM. The GI50 stood at 13 nM in assay [1] and 33 nM in assay [2].

With `C=CC(=O)Nc1cc(Nc2ncnc(N3CC4(CCC4)c4nc(C)ccc43)n2)c(OC)cc1N(C)CCN(C)C` [Example 61, N-(2-((2-(dimethylamino)ethyl) (methyl)amino)-4-methoxy-5-((4-(5′-methylspiro[cyclobutane-1,3′-pyrrolo[3,2-b]pyridin]-1′(2′H)-yl)-1,3,5-triazin-2-yl)amino)phenyl) acrylamide], 18.7 nM corresponded to half-maximal inhibition with A431 (EGFR-WT) (IC50). For the same compound, the GI50 in assay [1] came out at 14.1 nM; in assay [2], 46.4 nM.

Regarding `C=CC(=O)Nc1cc(Nc2nccc(N3CC(C)(C)c4nc(-n5ccnc5)ccc43)n2)c(OC)cc1N(C)CCN(C)C` [Example 51, N-(5-((4-(5-(1H-imidazole-1-yl)-3,3-dimethyl-2,3-dihydro-1H-pyrrolo[3,2-b]pyridin-1-yl)pyrimidin-2-yl)amino)-2-((2-(dimethylamino)ethyl)(methyl)amino)-4-methoxyphenyl)acrylamide], in the assay on A431 (EGFR-WT), the IC50 turned out to be 620 nM. Moreover, the GI50 in assay [1] came to 34.8 nM; in assay [2], 123 nM.

As for `C=CC(=O)Nc1cc(Nc2nccc(N3CC4(CCC4)c4nc(C)ccc43)n2)c(OCC(F)(F)F)nc1N(C)CCN(C)C` [Example 56, N-(2-((2-(dimethylamino)ethyl) (methyl)amino)-5-((4-(5′-methylspiro [cyclobutane-1,3′-pyrrolo[3,2-b]pyridin]-1′(2′H)-yl)pyrimidin-2-yl)amino)-6-(2,2,2-trifluoroethoxy)pyridin-3-yl)acrylamide], it took 348 nM to reach half-maximal inhibition with A431 (EGFR-WT) (IC50). The GI50 in assay [1] turned out to be 12 nM; in assay [2], 35.4 nM.

`C=CC(=O)Nc1cc(Nc2nccc(N3CC(C)(C)c4nc(C)ccc43)n2)c(OC(F)F)cc1N(C)CCN(C)C` [Example 47, N-(4-(difluoromethoxy)-2-((2-(dimethylamino)ethyl)(methyl)amino)-5-((4-(3,3,5-trimethyl-2,3-dihydro-1H-pyrrolo[3,2-b]pyridin-1-yl)pyrimidin-2-yl)amino)phenyl) acrylamide]: the IC50 with A431 (EGFR-WT) worked out at 378 nM. Besides, the GI50 worked out at 12.9 nM in assay [1] and 5.6 nM in assay [2].

Turning to `C=CC(=O)Nc1cc(Nc2cc(N3CC(C)(C)c4nc(C)ccc43)ccn2)c(OC)cc1N1CCC[C@@H]1CN(C)C` [Example 3], the IC50 in the assay on A431 (EGFR-WT) was determined as 841 nM. The values for the GI50 in assay [1] and in assay [2] were 66.3 nM and 111 nM, respectively.
